Earlier results, collected in US20040019012A1, “Ophthalmic antibiotic drug formulations containing a cyclodextrin compound and cetyl pyridinium chloride” (priority 2002, published 2004).

Assays:
[1] = test system: infective gram-positive bacteria; conditions: minimum inhibitory concentration for 90% of the target organisms
gram-positive organisms = conditions: Staphylococcus, Streptococcus, Enterococcus, Bacillus, Corynebacterium, Chlamydia, Neisseria

## CC(=O)NC[C@H]1CN(c2ccc(N3CCOCC3)c(F)c2)C(=O)O1 [linezolid, (S)-N-[[3-[3-fluoro-4-(4-morpholinyl)phenyl]-2-oxo-5-oxazolidinyl]methyl]acetamide]
[1]
  MIC90: about 4 μg/ml
gram-positive organisms
  antibacterial activity against gram-positive organisms: strong antibacterial activity
other
  practical limit of concentration in aqueous solution: about 2 mg/ml
